Test results from ChEMBL document CHEMBL5212743, “Selectivity Literature for EUbOPEN Chemogenomics Library wave 3” (2023).

Tests used:
[1] = biological target: Matrix metalloproteinase-14 (Homo sapiens, UniProt P50281); experiment: Selectivity interaction (MMPs panel (Panlabs panel, Bayer)) EUB0000725a MMP14
[2] = biological target: Matrix metalloproteinase-9 (Homo sapiens, UniProt P14780); experiment: Selectivity interaction (MMPs panel (Panlabs panel, Bayer)) EUB0000725a MMP9
[3] = biological target: D(2) dopamine receptor (Homo sapiens, UniProt P14416); experiment: Selectivity interaction (GPCR panel (PDSP screen)) EUB0000725a DRD2; conditions: at 10 µM
[4] = biological target: Phosphatidylinositol 4,5-bisphosphate 3-kinase catalytic subunit alpha isoform (Homo sapiens, UniProt P42336); experiment: Selectivity interaction (KinomeScan (DiscoverX)) EUB0000725a PIK3CA; conditions: at 10 µM
[5] = biological target: T1, Matrilysin (Homo sapiens, UniProt P09237); experiment: Selectivity interaction (MMPs panel (Panlabs panel, Bayer)) EUB0000725a MMP7
T1 sequence (P09237 whole entry): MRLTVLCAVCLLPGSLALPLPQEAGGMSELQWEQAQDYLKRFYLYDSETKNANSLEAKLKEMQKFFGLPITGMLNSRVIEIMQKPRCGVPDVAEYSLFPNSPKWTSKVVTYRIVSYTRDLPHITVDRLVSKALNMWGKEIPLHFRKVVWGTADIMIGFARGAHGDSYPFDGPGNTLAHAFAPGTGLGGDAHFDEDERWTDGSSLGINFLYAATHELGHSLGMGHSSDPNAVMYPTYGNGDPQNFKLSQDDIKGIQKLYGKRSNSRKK

[6] = biological target: Macrophage metalloelastase (Homo sapiens, UniProt P39900); experiment: Selectivity interaction (MMPs panel (Panlabs panel, Bayer)) EUB0000725a MMP12
[7] = biological target: Collagenase 3 (Homo sapiens, UniProt P45452); experiment: Selectivity interaction (MMPs panel (Panlabs panel, Bayer)) EUB0000725a MMP13
[8] = biological target: Stromelysin-1 (Homo sapiens, UniProt P08254); experiment: Selectivity interaction (MMPs panel (Panlabs panel, Bayer)) EUB0000725a MMP3
[9] = biological target: Uncharacterized serine/threonine-protein kinase SBK3 (Homo sapiens) (UniProt P0C264); experiment: Selectivity interaction (KinomeScan (DiscoverX)) EUB0000725a SBK3; conditions: at 10 µM
[10] = biological target: Neutrophil collagenase (Homo sapiens, UniProt P22894); experiment: Selectivity interaction (MMPs panel (Panlabs panel, Bayer)) EUB0000725a MMP8
[11] = biological target: Interstitial collagenase (Homo sapiens, UniProt P03956); experiment: Selectivity interaction (MMPs panel (Panlabs panel, Bayer)) EUB0000725a MMP1
[12] = biological target: 72 kDa type IV collagenase (Homo sapiens, UniProt P08253); experiment: Selectivity interaction (MMPs panel (Panlabs panel, Bayer)) EUB0000725a MMP2
[13] = biological target: Non-receptor tyrosine-protein kinase TYK2 (Homo sapiens, UniProt P29597); experiment: Selectivity interaction (KinomeScan (DiscoverX)) EUB0000291b TYK2; conditions: at 1 µM
[14] = biological target: Serine/threonine-protein kinase DCLK2 (Homo sapiens) (UniProt Q8N568); experiment: Selectivity interaction (KinomeScan (DiscoverX)) EUB0000291b DCLK2; conditions: at 1 µM
[15] = biological target: Cyclin-dependent kinase 11A (Homo sapiens) (UniProt Q9UQ88); experiment: Selectivity interaction (KinomeScan (DiscoverX)) EUB0000291b CDK11A; conditions: at 1 µM
[16] = biological target: Mitogen-activated protein kinase kinase kinase 12 (Homo sapiens) (UniProt Q12852); experiment: Selectivity interaction (KinomeScan (DiscoverX)) EUB0000291b MAP3K12; conditions: at 1 µM
[17] = biological target: T2, Cannabinoid receptor 1 (Homo sapiens, UniProt P21554); experiment: Selectivity interaction (CNR1 functional assay (GTPyS binding)) EUB0000291b CNR1
[18] = biological target: Cyclin-dependent kinase 18 (Homo sapiens) (UniProt Q07002); experiment: Selectivity interaction (KinomeScan (DiscoverX)) EUB0000291b CDK18; conditions: at 1 µM
[19] = biological target: T2, Cannabinoid receptor 1; experiment: Selectivity interaction (Eurofins-Panlabs radioligand binding assay) EUB0000291b CNR1; conditions: at 10 µM
[20] = biological target: Proteinase-activated receptor 4 (Homo sapiens, UniProt Q96RI0); experiment: Selectivity interaction (Functional cellular assay (using HEK cells expressing F2RL3)) EUB0000291b F2RL3
[21] = biological target: Cyclin-dependent kinase 4 (Homo sapiens) (UniProt P11802); experiment: Selectivity interaction (KinomeScan (DiscoverX)) EUB0000291b CDK4; conditions: at 1 µM
[22] = biological target: Chymotrypsin-C (Homo sapiens, UniProt Q99895); experiment: Selectivity interaction (Serine protease panel) EUB0000735a CTRC
[23] = biological target: Kallikrein-1 (Homo sapiens, UniProt P06870); experiment: Selectivity interaction (Serine protease panel) EUB0000735a KLK1
[24] = biological target: Kallikrein-12 (Homo sapiens, UniProt Q9UKR0); experiment: Selectivity interaction (Serine protease panel) EUB0000735a KLK12
[25] = biological target: Kallikrein-7 (Homo sapiens, UniProt P49862); experiment: Selectivity interaction (Serine protease panel) EUB0000735a KLK7
[26] = biological target: Coagulation factor VII (Homo sapiens, UniProt P08709); experiment: Selectivity interaction (Serine protease panel) EUB0000735a F7
[27] = biological target: cGMP-dependent protein kinase 1 (Homo sapiens) (UniProt Q13976); experiment: Selectivity interaction (KinomeScan (DiscoverX)) EUB0000735a PRKG1; conditions: at 1 µM
[28] = biological target: Chymase (Homo sapiens, UniProt P23946); experiment: Selectivity interaction (Serine protease panel) EUB0000735a CMA1
[29] = biological target: Chymotrypsin-like elastase family member 1 (Homo sapiens, UniProt Q9UNI1); experiment: Selectivity interaction (Serine protease panel) EUB0000735a CELA1
[30] = biological target: Plasminogen (Homo sapiens, UniProt P00747); experiment: Selectivity interaction (Serine protease panel) EUB0000735a PLG
[31] = biological target: Dipeptidyl peptidase 2 (Homo sapiens, UniProt Q9UHL4); experiment: Selectivity interaction (Serine protease panel) EUB0000735a DPP7
[32] = biological target: Coagulation factor IX (Homo sapiens, UniProt P00740); experiment: Selectivity interaction (Serine protease panel) EUB0000735a F9
[33] = biological target: Kallikrein-5 (Homo sapiens, UniProt Q9Y337); experiment: Selectivity interaction (Serine protease panel) EUB0000735a KLK5
[34] = biological target: Serine protease 1 (Homo sapiens, UniProt P07477); experiment: Selectivity interaction (Serine protease panel) EUB0000735a PRSS1
[35] = biological target: Dipeptidyl peptidase 4 (Homo sapiens, UniProt P27487); experiment: Selectivity interaction (Serine protease panel) EUB0000735a DPP4
[36] = biological target: Plasma kallikrein (Homo sapiens, UniProt P03952); experiment: Selectivity interaction (Serine protease panel) EUB0000735a KLKB1
[37] = biological target: cAMP-dependent protein kinase catalytic subunit beta (Homo sapiens) (UniProt P22694); experiment: Selectivity interaction (KinomeScan (DiscoverX)) EUB0000735a PRKACB; conditions: at 1 µM
[38] = biological target: Prolyl endopeptidase FAP (Homo sapiens, UniProt Q12884); experiment: Selectivity interaction (Serine protease panel) EUB0000735a FAP
[39] = biological target: Coagulation factor XI (Homo sapiens, UniProt P03951); experiment: Selectivity interaction (Serine protease panel) EUB0000735a F11
[40] = biological target: Kallikrein-4 (Homo sapiens, UniProt Q9Y5K2); experiment: Selectivity interaction (Serine protease panel) EUB0000735a KLK4
[41] = biological target: Cathepsin G (Homo sapiens, UniProt P08311); experiment: Selectivity interaction (Serine protease panel) EUB0000735a CTSG
[42] = biological target: Megakaryocyte-associated tyrosine-protein kinase (Homo sapiens) (UniProt P42679); experiment: Selectivity interaction (KinomeScan (DiscoverX)) EUB0000743a MATK; conditions: Cellular assay (active RAS (KRAS, HRAS,NRAS) in Calu-1 cells ([…])): IC50 = 4120 nM, https://www.sgc-ffm.uni-frankfurt.d, at 1 µM
[43] = biological target: SRSF protein kinase 2 (Homo sapiens) (UniProt P78362); experiment: Selectivity interaction (KinomeScan (DiscoverX)) EUB0000743a SRPK2; conditions: Cellular assay (active RAS (KRAS, HRAS,NRAS) in Calu-1 cells ([…])): IC50 = 4120 nM, https://www.sgc-ffm.uni-frankfurt.d, at 1 µM
[44] = biological target: Muscarinic acetylcholine receptor M1 (Homo sapiens, UniProt P11229); experiment: Selectivity interaction (GPCR panel (PDSP screen)) EUB0000743a CHRM1
Sequence of Muscarinic acetylcholine receptor M1 (P11229 whole entry): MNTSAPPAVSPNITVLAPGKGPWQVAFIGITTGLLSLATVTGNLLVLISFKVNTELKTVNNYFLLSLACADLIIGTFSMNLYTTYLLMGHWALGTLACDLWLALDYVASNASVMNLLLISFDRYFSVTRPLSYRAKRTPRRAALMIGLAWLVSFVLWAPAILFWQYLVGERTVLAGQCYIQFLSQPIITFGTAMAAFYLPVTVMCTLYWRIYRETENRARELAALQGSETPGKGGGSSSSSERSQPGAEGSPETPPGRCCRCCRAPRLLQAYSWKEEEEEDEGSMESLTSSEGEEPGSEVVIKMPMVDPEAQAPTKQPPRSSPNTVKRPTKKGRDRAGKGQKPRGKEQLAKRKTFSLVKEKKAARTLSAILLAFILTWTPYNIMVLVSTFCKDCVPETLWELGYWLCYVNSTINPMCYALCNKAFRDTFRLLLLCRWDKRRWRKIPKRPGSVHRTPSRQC

T2 sequence (P21554 whole entry): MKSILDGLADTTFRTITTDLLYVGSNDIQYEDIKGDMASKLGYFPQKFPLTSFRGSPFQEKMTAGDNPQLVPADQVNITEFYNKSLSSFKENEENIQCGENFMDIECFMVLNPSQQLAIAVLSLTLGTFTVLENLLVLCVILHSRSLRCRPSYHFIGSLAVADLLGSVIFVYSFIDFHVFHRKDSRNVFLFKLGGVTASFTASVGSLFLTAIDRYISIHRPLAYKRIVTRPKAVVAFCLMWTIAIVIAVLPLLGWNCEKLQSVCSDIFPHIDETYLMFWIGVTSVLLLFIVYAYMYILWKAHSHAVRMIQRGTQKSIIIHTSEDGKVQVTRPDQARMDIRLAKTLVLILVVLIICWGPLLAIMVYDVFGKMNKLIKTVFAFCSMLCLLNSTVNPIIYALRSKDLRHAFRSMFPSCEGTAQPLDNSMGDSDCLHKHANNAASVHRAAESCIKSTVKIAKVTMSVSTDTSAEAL
Sequence of Coagulation factor IX (P00740 47-191 limits assumed): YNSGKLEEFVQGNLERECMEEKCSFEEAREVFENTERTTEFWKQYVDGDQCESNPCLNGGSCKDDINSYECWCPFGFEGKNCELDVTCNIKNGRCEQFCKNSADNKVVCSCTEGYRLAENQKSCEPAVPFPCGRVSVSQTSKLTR
Sequence of Coagulation factor IX (P00740 227-461 limits assumed): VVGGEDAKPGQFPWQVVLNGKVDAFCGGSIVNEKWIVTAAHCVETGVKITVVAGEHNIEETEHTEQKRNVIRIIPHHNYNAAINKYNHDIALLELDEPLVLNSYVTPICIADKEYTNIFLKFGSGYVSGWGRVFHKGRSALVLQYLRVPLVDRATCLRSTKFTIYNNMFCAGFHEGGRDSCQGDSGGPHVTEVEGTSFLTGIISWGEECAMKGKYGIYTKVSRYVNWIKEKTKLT
Sequence of Serine protease 1 (P07477 whole entry): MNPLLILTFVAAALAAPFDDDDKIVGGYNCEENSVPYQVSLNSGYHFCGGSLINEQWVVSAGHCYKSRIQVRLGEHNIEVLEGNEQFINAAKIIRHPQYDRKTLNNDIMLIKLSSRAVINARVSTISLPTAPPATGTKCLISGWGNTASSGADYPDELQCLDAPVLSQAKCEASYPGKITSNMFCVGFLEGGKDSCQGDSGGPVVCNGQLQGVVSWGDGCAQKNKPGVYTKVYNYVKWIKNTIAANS
Sequence of Matrix metalloproteinase-9 (P14780 whole entry): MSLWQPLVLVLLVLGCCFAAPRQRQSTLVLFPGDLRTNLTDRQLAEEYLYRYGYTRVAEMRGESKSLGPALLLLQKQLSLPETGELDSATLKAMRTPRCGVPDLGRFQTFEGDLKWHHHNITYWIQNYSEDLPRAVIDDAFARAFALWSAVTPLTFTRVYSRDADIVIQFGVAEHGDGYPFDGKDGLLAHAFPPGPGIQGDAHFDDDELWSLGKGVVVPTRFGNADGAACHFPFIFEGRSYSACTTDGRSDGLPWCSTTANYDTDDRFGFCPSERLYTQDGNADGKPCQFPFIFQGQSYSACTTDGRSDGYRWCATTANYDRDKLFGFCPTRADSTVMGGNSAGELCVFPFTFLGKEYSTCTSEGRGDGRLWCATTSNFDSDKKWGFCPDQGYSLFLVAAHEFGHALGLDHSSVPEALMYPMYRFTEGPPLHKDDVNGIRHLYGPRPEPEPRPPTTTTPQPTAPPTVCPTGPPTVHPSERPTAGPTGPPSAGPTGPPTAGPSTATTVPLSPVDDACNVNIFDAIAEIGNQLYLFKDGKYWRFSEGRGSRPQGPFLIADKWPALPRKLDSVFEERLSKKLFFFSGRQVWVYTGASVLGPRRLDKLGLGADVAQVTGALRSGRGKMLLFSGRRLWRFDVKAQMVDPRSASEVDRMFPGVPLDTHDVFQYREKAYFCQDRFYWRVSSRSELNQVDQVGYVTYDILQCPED
Sequence of Uncharacterized serine/threonine-protein kinase SBK3 (Homo sapiens) (P0C264 whole entry): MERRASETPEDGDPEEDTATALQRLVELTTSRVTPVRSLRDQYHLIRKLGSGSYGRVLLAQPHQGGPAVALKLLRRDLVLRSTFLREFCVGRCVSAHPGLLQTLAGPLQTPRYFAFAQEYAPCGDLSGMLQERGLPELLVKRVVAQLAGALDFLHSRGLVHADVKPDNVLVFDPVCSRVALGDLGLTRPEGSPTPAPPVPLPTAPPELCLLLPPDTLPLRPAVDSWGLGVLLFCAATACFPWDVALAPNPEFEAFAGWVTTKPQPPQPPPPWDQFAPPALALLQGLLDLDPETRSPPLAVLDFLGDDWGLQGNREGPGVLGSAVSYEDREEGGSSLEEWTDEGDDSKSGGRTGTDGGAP
Sequence of Chymotrypsin-like elastase family member 1 (Q9UNI1 whole entry): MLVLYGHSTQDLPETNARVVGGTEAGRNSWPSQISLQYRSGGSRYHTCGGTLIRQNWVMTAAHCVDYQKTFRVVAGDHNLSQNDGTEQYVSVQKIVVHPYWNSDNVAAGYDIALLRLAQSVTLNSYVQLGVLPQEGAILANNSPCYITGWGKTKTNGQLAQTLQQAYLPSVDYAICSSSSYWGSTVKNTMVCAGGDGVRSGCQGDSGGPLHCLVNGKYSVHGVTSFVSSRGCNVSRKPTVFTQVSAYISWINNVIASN
Sequence of Dipeptidyl peptidase 4 (P27487 whole entry): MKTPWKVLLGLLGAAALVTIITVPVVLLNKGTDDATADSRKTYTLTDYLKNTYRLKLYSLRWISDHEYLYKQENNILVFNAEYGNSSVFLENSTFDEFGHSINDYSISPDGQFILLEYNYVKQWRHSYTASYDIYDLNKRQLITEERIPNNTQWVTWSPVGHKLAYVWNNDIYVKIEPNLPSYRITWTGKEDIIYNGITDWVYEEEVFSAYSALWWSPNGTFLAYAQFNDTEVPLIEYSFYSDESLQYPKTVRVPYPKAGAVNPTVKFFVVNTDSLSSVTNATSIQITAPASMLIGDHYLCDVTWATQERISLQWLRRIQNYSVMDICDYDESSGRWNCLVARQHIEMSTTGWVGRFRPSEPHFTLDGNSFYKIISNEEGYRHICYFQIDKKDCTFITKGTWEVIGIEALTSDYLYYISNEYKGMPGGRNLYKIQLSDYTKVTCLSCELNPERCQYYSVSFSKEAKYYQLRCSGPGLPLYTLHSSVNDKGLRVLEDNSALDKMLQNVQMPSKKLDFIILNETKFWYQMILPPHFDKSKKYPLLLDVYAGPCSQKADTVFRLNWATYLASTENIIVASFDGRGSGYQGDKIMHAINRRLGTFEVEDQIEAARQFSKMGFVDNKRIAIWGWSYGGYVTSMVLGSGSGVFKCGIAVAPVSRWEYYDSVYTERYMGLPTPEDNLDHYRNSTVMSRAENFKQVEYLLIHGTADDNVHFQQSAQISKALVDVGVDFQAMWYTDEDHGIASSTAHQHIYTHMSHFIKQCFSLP
Sequence of Cyclin-dependent kinase 18 (Homo sapiens) (Q07002 whole entry): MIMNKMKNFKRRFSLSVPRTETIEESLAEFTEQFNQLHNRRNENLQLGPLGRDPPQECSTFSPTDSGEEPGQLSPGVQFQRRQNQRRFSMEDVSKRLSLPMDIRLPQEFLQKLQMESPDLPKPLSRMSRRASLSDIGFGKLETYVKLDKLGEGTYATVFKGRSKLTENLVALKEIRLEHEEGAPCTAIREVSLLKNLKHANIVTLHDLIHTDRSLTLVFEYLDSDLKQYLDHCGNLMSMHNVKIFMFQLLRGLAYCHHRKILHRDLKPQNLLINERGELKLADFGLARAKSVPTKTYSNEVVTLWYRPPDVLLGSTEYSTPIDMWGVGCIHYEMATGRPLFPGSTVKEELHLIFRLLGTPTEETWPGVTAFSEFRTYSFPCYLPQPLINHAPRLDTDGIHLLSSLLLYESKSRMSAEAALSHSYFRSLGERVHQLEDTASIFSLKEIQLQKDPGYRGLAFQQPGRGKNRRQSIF
Sequence of Cathepsin G (P08311 whole entry): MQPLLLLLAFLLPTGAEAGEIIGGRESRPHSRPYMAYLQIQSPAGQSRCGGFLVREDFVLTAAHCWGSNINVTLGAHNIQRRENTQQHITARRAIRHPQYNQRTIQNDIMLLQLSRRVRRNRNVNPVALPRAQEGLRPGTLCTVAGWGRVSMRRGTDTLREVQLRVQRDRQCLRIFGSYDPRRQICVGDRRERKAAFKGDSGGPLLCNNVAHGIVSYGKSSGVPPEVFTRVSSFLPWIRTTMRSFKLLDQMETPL
Sequence of Kallikrein-1 (P06870 whole entry): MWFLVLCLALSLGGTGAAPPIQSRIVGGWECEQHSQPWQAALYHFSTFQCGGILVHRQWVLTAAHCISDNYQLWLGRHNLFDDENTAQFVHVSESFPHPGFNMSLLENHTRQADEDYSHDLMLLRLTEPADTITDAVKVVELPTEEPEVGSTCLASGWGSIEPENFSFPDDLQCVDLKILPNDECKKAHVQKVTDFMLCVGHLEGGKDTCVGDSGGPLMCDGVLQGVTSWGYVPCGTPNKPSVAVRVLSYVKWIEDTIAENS
Sequence of Kallikrein-7 (P49862 whole entry): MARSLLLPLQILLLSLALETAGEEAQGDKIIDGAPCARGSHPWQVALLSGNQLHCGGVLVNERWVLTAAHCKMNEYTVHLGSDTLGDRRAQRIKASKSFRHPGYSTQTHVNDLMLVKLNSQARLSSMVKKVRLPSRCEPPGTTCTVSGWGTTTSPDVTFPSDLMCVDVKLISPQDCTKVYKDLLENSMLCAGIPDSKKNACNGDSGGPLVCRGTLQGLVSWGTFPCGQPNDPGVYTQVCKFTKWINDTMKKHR

For `O=C(O)[C@@H]1[C@@H](Cn2nnc3ccccc3c2=O)CC[C@H]1C(=O)c1ccc(OCCC2CCOCC2)cc1` [BAY-694], the IC50 [1] was > 10 µM, the IC50 [2] was > 10 µM and the % of inhibition [3] was 30%. The % of control [4] was 34%, the IC50 [5] was > 10 µM and the IC50 [6] was > 10 µM. For the same compound, the IC50 [7] was > 10 µM, the IC50 [8] was > 10 µM and the % of control [9] was 43%. For the same compound, the IC50 [10] was > 10 µM, the IC50 [11] was > 10 µM and the IC50 [12] was > 10 µM.

`O=C(N1CCS(=O)(=O)CC1)N1C[C@H](c2ccc(OC(F)(F)F)cc2)C[C@H](c2nc(C3CC3)no2)C1` [BAY-386] gave a % of control [13] of 53%, a % of control [14] of 0% and a % of control [15] of 0%. It also gave a % of control [16] of 0%, an IC50 [17] of 10.6 µM and a % of control [18] of 0%. For the same compound, the % of inhibition [19] was 88%, the IC50 [20] was > 10 µM and the % of control [21] was 18%.

`CC(=O)C1=C(C)N(c2cccc(C(F)(F)F)c2)C(=O)N[C@@H]1c1ccc(C#N)nc1` [BAY-678] was tested, and the IC50 [22] was > 30 µM, the IC50 [23] was > 30 µM and the IC50 [24] was > 30 µM. For the same compound, the IC50 [25] was > 30 µM, the IC50 [26] was > 30 µM and the % of control [27] was 45.5%. The IC50 [28] was > 30 µM, the IC50 [29] was > 30 µM and the IC50 [30] was > 30 µM. The IC50 [31] was > 30 µM, the IC50 [32] was > 30 µM and the IC50 [33] was > 30 µM. For the same compound, the IC50 [34] was > 30 µM, the IC50 [35] was > 30 µM and the IC50 [36] was > 30 µM. The % of control [37] was 48.7%, the IC50 [38] was > 30 µM and the IC50 [39] was > 30 µM. For the same compound, the IC50 [40] was > 30 µM and the IC50 [41] was > 30 µM.

`CNCc1ccccc1-c1csc([C@H](C)Nc2nc(C)nc3cc(OC)c(OC)cc23)c1` [BAY-294] was tested, and the % of control [42] was 51%, the % of control [43] was 52% and the Ki [44] was 0.614 µM.
